Data set [1] deals with cytochrome P450 subtypes except 2C9. Nature of the data set: CYP inhibition, all subtypes except 2C9. It counts as in vitro ADME. The settings on record: human, liver microsomes, pH 7.4. The method, then: (§1) Test compounds were diluted in methanol and then added to mixture containing 50 mM potassium phosphate buffer, pH 7.4, human liver microsomes (BD Gentest) and probe substrate. After prewarming for 5 min at 37 °C, the reaction was started by adding cofactor mix (7.65 mg/mL glucose-6-phosphate, 1.7 mg/mL NADP, 6 U/mL of glucose-6-phosphate dehydrogenase), resulting in seven final concentrations of test compounds in the range 0.14–100 μM (2% methanol). Isoform specific conditions regarding probe substrate and microsomal protein concentrations are available in Table 2. Final concentrations of cofactor mix components were as follows: 1.56 mg/mL glucose-6-phosphate, 0.34 mg/mL NADP, and 1.2 U/mL glucose-6-phosphate dehydrogenase. After incubation at 37 °C, the reaction was terminated with acetonitrile:methanol (2:1) solution with internal standard. Samples were centrifuged, and the supernatant fractions were analyzed by LC-MS/MS. The instrument responses (test compounds and internal standard peak areas) were referenced to those for solvent controls (assumed as 100%) in order to determine the percentage reduction in probe metabolism. Percent of control activity vs concentration plots were generated and fitted using GraphPad Prism software to generate IC50.
On the technique in general: Liver microsomes are a subcellular fraction often used to study metabolism.

In the next data set the test system is CYP3A4. The experiment in a line: CYP3A4 induction (mRNA) in human hepatocytes. It counts as in vitro ADME. The settings on record: for CYP (3A4) mRNA induction, result in words: compared with positive control rifampicin. The method, then: Cryopreserved human hepatocytes from a single donor were seeded at 0.1 × 10^6 cells/well. The next day, cells were dosed with test compound in assay medium (final test compound concentration 10 μM; final DMSO concentration 0.1%). Positive control inducer, rifampicin, for CYP3A4, was incubated alongside the test compound. Negative control wells were included where the test compound is replaced by vehicle solvent (0.1% DMSO in assay medium). Each test or control compound was dosed in triplicate at a single concentration (10 μM). The cells were exposed to the solutions for 72 h with fresh solution added every 24 h. For mRNA assessment, all media was removed from each of the wells, and the cells were washed once. The cells were lysed, and total RNA was then isolated from the hepatocyte lysates. Reverse transcription was performed, and quantitative PCR analysis was performed on the resulting cDNA, using gene-specific primer probe sets for CYP3A4 target cDNA and endogenous control. Samples were analyzed using an ABI 7900 HT real time PCR system. For mRNA assessment, relative fold mRNA expression was determined based on the threshold cycle (CT) data of target gene relative to endogenous control for each reaction and normalized to negative control using the 2-ΔΔCT method. Data were expressed as fold activation relative to the vehicle control and, as a percent, to the 10 μM rifampicin using the following formula: % of positive control = ((fold increase of the cpd relative to vehicle control – 1)/(fold increase of the rifampicin at 10 μM – 1)) × 100.

A short description of another data set: PK rat. It counts as in vivo. Here is the method: These studies were performed with naïve male Sprague–Dawley rats (Janvier France, 6–8 weeks old). Rats were dosed iv via a bolus in the tail vein with a dose level of 0.1 mg/kg or orally as a single esophageal gavage with a dose level of 5 mg/kg. For the iv route, the compound was formulated in PEG200/water (60/40; v/v). For the oral route, the compound was formulated in MC 0.5% (2/98) as a homogeneous suspension. Before the oral dosing, the animals were deprived of food for at least 12 h before compound administration until 3 h after administration. All animals had free access to the tap water. Blood samples were collected under light anesthesia and placed into tubes containing Li-heparin as an anticoagulant. Blood samples were collected up to 24 h after dosing (n = 3 rats per route). After centrifugation, the resulting plasma samples were assayed by LC-MS/MS with a nongood laboratory practice (non-GLP)-validated method. PK parameters were calculated by noncompartmental analysis using WinNonlin software (Certara, Princeton, NJ, USA).

The nature of data set [2]: Plasma protein binding, human. It counts as in vitro ADME. Particulars: human, plasma, pH 7.4, human plasma; read-out: PPB % human (converted). The method, then:
(§2) Plasma protein binding was determined by equilibrium dialysis using the Pierce Red Device plate with inserts (ThermoScientific). Test compound at 5 μM (0.5% DMSO) spiked in freshly thawed human, rat, mouse, or dog plasma (Bioreclamation INC, Westbury, NY, USA) was dialyzed against phosphate-buffered saline (PBS, pH 7.4) at 37 °C under shaking for 4 h. Aliquots were taken from each side of the well, and matrix matched. Proteins were precipitated with an excess of acetonitrile, samples were mixed and centrifuged, and the supernatant was analyzed by liquid chromatography–mass spectrometry/mass spectrometry (LC–MS/MS). Addition of compound peak areas in the buffer chamber and the plasma chamber was considered to be 100% compound.

The target in another data set is T1, CYP2C9 (Homo sapiens, UniProt P11712).
T1 construct: tissue BD Gentest; host or cells: human liver microsomes
Nature of the data set: CYP reversible inhibition in HLM, CYP2C9. Type of data set: in vitro ADME. The settings on record: probe not given; read-out: CYP inhibition IC50, 2C9. The method, then: as §1

The next data set has as its target CYP3A4 enzyme (Homo sapiens, UniProt P08684). The experiment in a line: Mechanism-based inactivation of CYP3A4. It counts as in vitro ADME.
Data set [3] can be described thus: Plasma protein binding, rat. Type of data set: in vitro ADME. The settings on record: pH 7.4, read-out: PPB % rat (converted). Here is the method: as §2
The next data set deals with T2, ΔF508 CFTR (Homo sapiens, UniProt P13569, DEL508-508).
T2 construct: host or cells: CFBE41o- TetON cells, expression induced with doxycycline
Nature of the data set: TECC (transepithelial clamp circuit) in primary CF-derived HBE cells. Type of data set: cell-based. Here is the method:
Bronchial epithelial cells isolated from the lungs of patients with CF homozygous for the ΔF508 CFTR mutation were obtained from McGill University (Montreal, QC, Canada) or the University of North Carolina (Chapel Hill, NC, United States). Cells were isolated from lungs obtained from donors undergoing planned transplantation. These primary cells were cultured directly on type IV collagen-coated polycarbonate Transwell supports with a diameter of 6.5 mm and pore size of 0.4 μm (Costar, #3397) for 18–25 days in an air–liquid interface, essentially as previously described for TECC.[23]
Twenty-four hours prior to the electrophysiological recording, corrector and/or potentiator compounds were added on both the apical and basolateral sides. TECC recordings were performed by using the TECC instrument developed and sold by EP Design (Bertem, Belgium). During the recording, the epithelial cells were bathed in a NaCl-Ringer solution (120 mM NaCl, 20 mM HEPES, 1.2 mM CaCl2, 1.2 mM MgCl2, 0.8 mM KH2PO4, 0.8 mM K2HPO4, 5 mM glucose, pH 7.4) on both the basolateral (640 μL) and the apical (160 μL) sides and kept at 37 °C. Corrector and potentiator compounds were readded at the same concentration used during the 24 h pretreatment. Apical amiloride was used to inhibit the endogenous ENaC currents (100 μM), while forskolin (10 μM) was applied on both the apical and basolateral sides to stimulate CFTR. Measurements were done during a 20 min time frame with recordings every 2 min. The transepithelial potential and transepithelial resistance were measured in an open circuit and transformed to Ieq using Ohm’s law. The maximal increase in Ieq (ΔIeq, the difference in current before and after forskolin or potentiator treatment) was used as a measure for the increased CFTR activity. EC50 values were generated by measuring the impact of different concentrations of compounds on ΔIeq in primary cells. For this purpose, each transwell was treated with a different compound concentration. CFTRInh-172 was added apically at 10 μM to assess the specificity of the response. Dose response data was fitted using a 3-parameter hill function of the form Response = Bottom + (Top – Bottom)/(1 + (EC50/concentration)) to determine EC50 values. Percentage efficacy was calculated using the following formula: (max response – neg control)/(C1 response – neg control).

A short description of the next data set: PK dog. It counts as in vivo. Particulars: iv. Here is the method: These studies were performed with non-naïve male Beagle dogs (age 13.8 months old, origin: Marshall US, North Rose, NY 14516, USA; age 15.8 months old, origin: Harlan; age 17.7 months old, origin: Harlan). Dogs (n = 3) were dosed iv via a 10 min infusion via a catheter with a dose level of 1 mg/kg. After a washout of 3 days, they were dosed orally as a single gavage with a dose level of 5 or 1 mg/kg in PEG400/MC 0.5% or MC 0.5%. Before administration by the po route, animals were fasted for a period of at least 12 h before treatment, and food was given just after the 3 h of blood sampling. All animals had free access to tap water. Blood samples were taken without an anesthetic from a jugular or cephalic vein into tubes containing lithium heparin as an anticoagulant. Blood samples were taken up to 24 h after the start of the infusion. After centrifugation, the resulting plasma samples were assayed by LC-MS/MS with a nongood laboratory practice (non-GLP)-validated method. PK parameters were calculated by noncompartmental analysis using WinNonlin software (Certara, Princeton, NJ, USA).

The nature of data set [4]: Plasma protein binding, dog. Particulars: dog, plasma, pH 7.4, dog plasma; read-out: PPB % dog (converted). It counts as in vitro ADME. Here is the method:
as §2

The source of these data is publication PMC11017246, “Discovery of GLPG2737, a Potent Type 2 Corrector of CFTR for the Treatment of Cystic Fibrosis in Combination with a Potentiator and a Type 1 Co-corrector” (Journal of Medicinal Chemistry, 2024).

Where only a bound is given, the exact number is not on record here.

The term IC50 denotes the concentration needed to halve the response being measured. As a reminder, the bioavailability is dose-corrected exposure relative to a reference, in per cent. Read a low bioavailability as poor availability. The EC50 is the midpoint of the concentration-response curve.

T2 sequence (P13569 with tags, fused parts or gaps DEL508-508): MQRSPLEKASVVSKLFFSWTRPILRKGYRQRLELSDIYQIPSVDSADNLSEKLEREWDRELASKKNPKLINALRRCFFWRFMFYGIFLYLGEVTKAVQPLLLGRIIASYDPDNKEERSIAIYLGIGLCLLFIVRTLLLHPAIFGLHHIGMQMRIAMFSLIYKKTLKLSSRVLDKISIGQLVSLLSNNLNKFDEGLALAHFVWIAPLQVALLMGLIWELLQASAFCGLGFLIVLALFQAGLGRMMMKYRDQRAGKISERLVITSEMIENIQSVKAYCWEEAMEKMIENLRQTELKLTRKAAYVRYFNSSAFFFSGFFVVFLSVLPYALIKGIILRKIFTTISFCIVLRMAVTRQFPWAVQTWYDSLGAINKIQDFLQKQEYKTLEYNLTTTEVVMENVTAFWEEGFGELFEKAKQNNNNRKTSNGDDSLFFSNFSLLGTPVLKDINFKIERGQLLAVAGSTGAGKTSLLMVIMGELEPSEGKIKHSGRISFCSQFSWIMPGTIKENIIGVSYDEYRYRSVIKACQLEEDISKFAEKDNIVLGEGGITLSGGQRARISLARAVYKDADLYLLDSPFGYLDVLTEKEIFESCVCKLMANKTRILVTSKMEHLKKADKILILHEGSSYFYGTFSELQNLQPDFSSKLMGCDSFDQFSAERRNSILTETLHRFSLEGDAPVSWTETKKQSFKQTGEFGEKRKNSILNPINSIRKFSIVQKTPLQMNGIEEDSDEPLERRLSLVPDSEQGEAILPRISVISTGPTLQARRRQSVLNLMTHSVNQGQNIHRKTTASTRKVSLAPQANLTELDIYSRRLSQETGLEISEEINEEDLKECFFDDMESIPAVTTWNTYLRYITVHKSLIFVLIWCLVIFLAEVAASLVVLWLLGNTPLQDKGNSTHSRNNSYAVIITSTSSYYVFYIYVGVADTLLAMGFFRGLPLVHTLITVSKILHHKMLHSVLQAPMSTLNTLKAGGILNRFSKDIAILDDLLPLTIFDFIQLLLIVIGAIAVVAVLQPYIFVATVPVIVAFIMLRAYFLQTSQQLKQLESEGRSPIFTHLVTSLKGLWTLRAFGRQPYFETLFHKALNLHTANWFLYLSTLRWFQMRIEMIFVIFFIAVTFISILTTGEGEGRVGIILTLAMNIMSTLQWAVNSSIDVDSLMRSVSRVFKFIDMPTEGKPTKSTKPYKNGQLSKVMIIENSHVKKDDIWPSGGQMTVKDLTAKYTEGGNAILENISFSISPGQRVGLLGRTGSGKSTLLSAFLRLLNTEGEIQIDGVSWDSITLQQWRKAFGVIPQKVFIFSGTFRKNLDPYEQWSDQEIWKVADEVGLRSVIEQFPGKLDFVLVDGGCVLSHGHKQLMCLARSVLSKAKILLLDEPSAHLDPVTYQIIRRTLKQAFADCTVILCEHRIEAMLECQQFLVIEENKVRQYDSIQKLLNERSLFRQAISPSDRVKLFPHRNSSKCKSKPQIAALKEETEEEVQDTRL
Chain of CYP3A4 enzyme (P08684 whole entry): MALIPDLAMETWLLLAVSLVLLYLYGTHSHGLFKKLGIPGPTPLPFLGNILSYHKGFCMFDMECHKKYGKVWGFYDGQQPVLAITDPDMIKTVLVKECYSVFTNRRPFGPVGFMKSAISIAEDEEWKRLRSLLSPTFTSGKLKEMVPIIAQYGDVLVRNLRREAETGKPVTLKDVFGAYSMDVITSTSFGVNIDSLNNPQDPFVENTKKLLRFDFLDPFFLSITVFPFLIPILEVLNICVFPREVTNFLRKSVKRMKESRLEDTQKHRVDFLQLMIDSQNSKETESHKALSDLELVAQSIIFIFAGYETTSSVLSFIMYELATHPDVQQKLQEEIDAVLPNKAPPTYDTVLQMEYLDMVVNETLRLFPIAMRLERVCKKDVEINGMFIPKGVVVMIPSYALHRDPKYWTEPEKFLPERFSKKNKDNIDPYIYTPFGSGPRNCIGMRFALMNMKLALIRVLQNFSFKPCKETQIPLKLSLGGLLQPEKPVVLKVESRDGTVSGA
T1 sequence (P11712 whole entry): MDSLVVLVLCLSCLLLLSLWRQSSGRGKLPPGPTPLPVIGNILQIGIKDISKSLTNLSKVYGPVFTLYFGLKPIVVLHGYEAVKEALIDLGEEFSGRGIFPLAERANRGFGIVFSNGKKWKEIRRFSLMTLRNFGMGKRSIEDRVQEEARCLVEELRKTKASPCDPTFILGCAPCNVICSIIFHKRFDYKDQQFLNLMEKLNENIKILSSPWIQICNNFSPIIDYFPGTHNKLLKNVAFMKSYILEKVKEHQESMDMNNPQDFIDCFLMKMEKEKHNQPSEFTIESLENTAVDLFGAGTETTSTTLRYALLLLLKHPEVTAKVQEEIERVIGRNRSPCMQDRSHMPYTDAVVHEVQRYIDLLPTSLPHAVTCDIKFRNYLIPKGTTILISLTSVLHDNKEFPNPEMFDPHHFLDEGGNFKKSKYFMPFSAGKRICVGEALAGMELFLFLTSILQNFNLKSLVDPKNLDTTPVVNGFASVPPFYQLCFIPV

Consider `CS(=O)(=O)NC(=O)c1cc(-c2ccc(N3CCC(C#N)CC3)nc2)c2c(C3CCC3)nn(-c3ccccc3)c2n1` [Compound 45], for which the IC50 in data set [1] was not below 50000 nM; on CYP2C9, 187 nM. In addition, the “CYP (3A4) mRNA induction, result in words” value with CYP3A4 is listed as “low CYP3A4 induction”. In addition, the clearance was 0.41 mL/min/kg in “PK rat” (male, Sprague-Dawley, plasma, 1 mg/kg, iv dosing, read-out: plasma clearance (converted)) and 0.41 mL/min/kg in “PK rat” (male, Sprague-Dawley, plasma, iv, 0.1 mg/kg, formula-strings file, unit inferred, read-out: Cl (converted)). Besides, in “PK rat” (male, Sprague-Dawley, plasma, 5 mg/kg po), the bioavailability at 24 h was 63.4%. Further, the Vd in the data set “PK rat” (male, Sprague-Dawley, plasma, iv, 0.1 mg/kg, formula-strings file, unit inferred, read-out: Vss) was 0.195 L/kg; in the data set “PK rat” (male, Sprague-Dawley, plasma, iv, 1 mg/kg, 1 mg/kg iv, read-out: Vss), 0.2 L/kg. The figures for the fraction unbound at 4 h, 5 μM in data set [2] and in data set [3] were 0.0035 and 0.0003, respectively. The “mechanism-based inactivation of CYP3A4” value at CYP3A4 enzyme is reported as “devoid of mechanism-based inactivation”.
Consider `CS(=O)(=O)NC(=O)c1cc(N2CCC(N3CCOCC3)CC2)c2c(C3CCC3)nn(-c3ccccc3)c2n1` [Compound 49], for which the figures for the “CYP induction @10 μM (mRNA) % rifampicin” value with CYP3A4 (data generated by AbbVie team) and with CYP3A4 (data generated by Galapagos) were 6.7% and 12%, respectively. Further, the “CYP (3A4) mRNA induction, result in words” value in the data set on CYP3A4 is listed as “devoid of any CYP induction liability”. At ΔF508 CFTR (GLPG1837 potency in triple combination), the “shift of the potentiator activity” value is recorded as 1 log unit. For the same molecule, the Emax on ΔF508 CFTR (primary ΔF508 homozygous HBE cells, 24 h incubation, with GLPG2222, read-out: TECC HBE with GLPG2222 % max activation) stood at 534%. Moreover, the EC50 on ΔF508 CFTR (primary ΔF508 homozygous HBE cells, 24 h incubation, with GLPG2222, read-out: TECC HBE with GLPG2222 EC50) amounted to 39 nM. Moreover, in the data set “PK dog” (unbound clearance), the CLu dog amounted to 8.3 mL/min/kg. The clearance is 0.333 mL/min/kg in “PK dog” (male, beagle, plasma, 1 mg/kg, read-out: CLp dog (converted)) and 1 mL/min/kg in the data set “PK rat” (male, Sprague-Dawley, plasma, 0.1 mg/kg, iv, read-out: CLp rat (converted)). Moreover, the Vd in the data set “PK dog” (male, beagle, plasma, 1 mg/kg, read-out: Vss dog) turned out to be 0.2 L/kg; in the data set “PK rat” (male, Sprague-Dawley, plasma, iv, 0.1 mg/kg, iv, read-out: Vss rat), 0.4 L/kg. The half-life in “PK dog” (male, beagle, plasma, 1 mg/kg, read-out: t1/2 iv dog (converted)) is 6.6 h; in the data set “PK rat” (male, Sprague-Dawley, plasma, 0.1 mg/kg, iv, read-out: t1/2 iv rat (converted)), 4.7 h. In “PK rat” (iv, unbound clearance), the CLu rat is 70 mL/min/kg. In addition, the results for the fraction unbound at 4 h, 5 μM in [2], in data set [4] and in [3] were 0.01, 0.015 and 0.01, respectively.
